Measured values as given in patent EP3884941A1, “INFLAMMASOME INHIBITORS AND USE THEREOF” (CENTRO DE INVESTIGACION PRINCIPE FELIPE, priority 2020, dated 2021).

Legend:
Recombinant caspase-1 = target: T1, Recombinant caspase-1 (Homo sapiens, UniProt P29466); assay: caspase-1 in vitro activation assay (secondary screening); type: biochemical; conditions: preactivated recombinant caspase-1
T1 sequence (P29466 120-297 limits assumed): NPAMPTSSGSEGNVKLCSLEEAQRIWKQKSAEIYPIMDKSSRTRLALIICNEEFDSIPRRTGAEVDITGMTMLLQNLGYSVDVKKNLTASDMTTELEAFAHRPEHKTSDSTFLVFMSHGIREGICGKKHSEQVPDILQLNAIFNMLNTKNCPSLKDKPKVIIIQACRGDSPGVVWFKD
T1 sequence (P29466 317-404 limits assumed): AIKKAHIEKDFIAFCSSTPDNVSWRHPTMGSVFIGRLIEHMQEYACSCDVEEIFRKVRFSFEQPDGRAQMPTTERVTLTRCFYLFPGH
Experimental: Recombinant caspase-1 (50 nM) was incubated with the indicated concentrations of compounds for 20 min at RT in Assay Buffer. Then fluorogenic substrate Ac-WEHD-AFC (80 µM) was added, and activity was monitored in a Wallac Victor workstation. Data are reported as the percentage of inhibition compared with the absence of the inhibitor.

NLRP3 inflammasome [1] = assay: inflammasome activation cellular assay, LPS plus nigericin, PMA-differentiated THP-1 cells; type: cell-based, human; conditions: MM01 10 µM
Experimental: The MM01 compound was evaluated in the THP-1, or PMA-differentiated THP-1 cells (50 nM PMA for 24h) stimulated with lipopolysaccharide (LPS) plus adenosine triphosphate (ATP) to stimulate ASC-dependent inflammasomes NLRP3. Briefly, 1x10^6 cells were seeded in 6-well plates in 1 mL RPMI media that contained 1% FBS. Cells were either mock-treated or primed with compounds at the indicated concentrations for 30 min, followed by treatment with 100 ng/mL LPS (Sigma) and 2.5 mM ATP (Sigma) for 6 h at 37°C. In the case of nigericin stimulation, cells were primed with LPS for 3h, and then 10 µM nigericin (Sigma) was added for 30 min. Supernatants were harvested and clarified by centrifugation at 1500 rpm at RT, and a cytokine analysis was performed. Both IL-1β secretion and the release of IL-18were monitored by an ELISA assay (BD OptEIA™ Human IL-1β ELISA Kit and Human IL-18 Module Set eBioscience) following the manufacturer's instructions. Cell viability was analyzed in parallel by evaluating the release of lactate dehydrogenase (LDH) according to a commercial kit (CytoTox-ONE™ Homogeneous Membrane Integrity Assay; Promega). The release of LDH was calculated using the formula: the release of LDH (%) = 100x (Abs490 treated -Abs490 untreated cells)/ Abs490 untreated cells lysed with Triton 9% (maximum release of LDH).
The supernatants of the treated cells were precipitated by the chloroform-methanol method. Pellets were obtained by lysing cells in 25 mM of Tris-HCI pH 7.4, 1 mM EDTA, 1 mM EGTA and 1% SDS, plus protease and phosphatase inhibitors. The protein concentration was determined by the BCA protein assay. Samples were separated in a 14% SDS-PAGE gel, transferred to a nitrocellulose membrane and blocked with 5% skimmed milk for 1 h. Then the membrane was incubated overnight with primary antibodies: α-casp1 (1:1000; Cell Signaling 2225), α-IL-1β (1:1000; Acris R1130P), α-NLRP3 (1:1000; Cell Signaling 15101), α-tubulin (1:3000; Abcam ab6160) at 4°C. […]

NLRP3 inflammasome [2] = assay: human PBMCs cellular assay, LPS plus ATP; type: cell-based; conditions: IL-1β and LDH release; MM01 1, 5 or 10 µM (Figure 5E, 5F)
Experimental: Human peripheral blood mononuclear cells (PBMCs) are lymphocytes and monocytes. PBMCs were separated from the whole blood by a density gradient centrifugation method using Ficoll Histopaque. Purified PBMCs were plated in 24-well plates at 5000000 cells/well in free-serum RPMI medium. Cells were primed for 3 h with 10 ng/ml pure LPS followed by 4 h with compounds and 5 mM ATP. Supernatants were harvested and clarified by centrifugation at 1500 rpm at RT and cytokine and caspase-1 activation analysis was performed as previously described.

NLRC4 inflammasome = NLRC4 inflammasome activation, Salmonella Typhimurium, THP-1 cells; type: cell-based, human; conditions: MM01 10 µM
Experimental: The materials and methods employed in these experiments are now described. The molecules were evaluated in the THP-1, or PMA-differentiated THP-1 cells (50 nM PMA for 24h) as described in Example 3. To stimulate NLRP1 inflammasome, cells were either mock-treated or primed with compounds at the indicated concentrations for 30 min, followed by treatment with 100 ng/mL LPS (Sigma) and 50 µg/ml MDP (Sigma) for 6 h at 37°C. In the case of NLRC4 inflammasome induction, cells were pretreated with the compounds for 30 min and then cells were stimulated for 3 h with Salmonella Typhimurium (MOI 5). To induce AIM2 inflammasome, cells were pretreated in the same conditions as before and transfected with poly(dA:dT) (200 µg/ml; Sigma) overnight using Lipofectamine 2000 (Invitrogen). Both IL-1β secretion and the release of IL-18 were monitored as previously described in Example 3.

[3] = PMA-differentiated THP-1, LPS 100 ng/ml + nigericin 10 µM

C=CCN1C(=O)/C(=C2/C(=O)Nc3ccccc32)SC1=S [MM01]
caspase-1 activity (Recombinant caspase-1): do not act on | IL-1β secretion (NLRP3 inflammasome [1]; [3]): decreased | IL-18 secretion (NLRP3 inflammasome [1]; [3]): decreased | pyroptotic cell death (NLRP3 inflammasome [1]; PMA-differentiated THP-1, LPS + nigericin, LDH release): decreased | LPS/ATP stimulation of isolated human PBMCs (NLRP3 inflammasome [2]): inhibits | cytokine maturation and release (NLRC4 inflammasome; THP-1, Salmonella infection (MOI 5)): impaired | pyroptosis (NLRC4 inflammasome; THP-1, Salmonella infection, LDH): decrease
